Test [1] in a line: Antioxidant activity assessed as reduction in oxidative stress. It counts as functional.
The target in test [2] is Amyloid-beta precursor protein (Homo sapiens, UniProt P05067). In words: Inhibition of beta amyloid (unknown origin) deposition.
The target in test [3] is DNA. In words: Binding affinity to Ha-ras DNA (unknown origin) assessed as Ha-ras PCR product formation. It is filed as nucleic-acid assay.
The target in test [4] is DNA. Briefly: Binding affinity to human estrogen receptor DNA assessed as estrogen receptor PCR product formation. It is filed as nucleic-acid assay.

Each structure is given as a SMILES string.

The IC50 is the concentration that gives 50% inhibition.

Sequence of Amyloid-beta precursor protein (P05067 whole entry): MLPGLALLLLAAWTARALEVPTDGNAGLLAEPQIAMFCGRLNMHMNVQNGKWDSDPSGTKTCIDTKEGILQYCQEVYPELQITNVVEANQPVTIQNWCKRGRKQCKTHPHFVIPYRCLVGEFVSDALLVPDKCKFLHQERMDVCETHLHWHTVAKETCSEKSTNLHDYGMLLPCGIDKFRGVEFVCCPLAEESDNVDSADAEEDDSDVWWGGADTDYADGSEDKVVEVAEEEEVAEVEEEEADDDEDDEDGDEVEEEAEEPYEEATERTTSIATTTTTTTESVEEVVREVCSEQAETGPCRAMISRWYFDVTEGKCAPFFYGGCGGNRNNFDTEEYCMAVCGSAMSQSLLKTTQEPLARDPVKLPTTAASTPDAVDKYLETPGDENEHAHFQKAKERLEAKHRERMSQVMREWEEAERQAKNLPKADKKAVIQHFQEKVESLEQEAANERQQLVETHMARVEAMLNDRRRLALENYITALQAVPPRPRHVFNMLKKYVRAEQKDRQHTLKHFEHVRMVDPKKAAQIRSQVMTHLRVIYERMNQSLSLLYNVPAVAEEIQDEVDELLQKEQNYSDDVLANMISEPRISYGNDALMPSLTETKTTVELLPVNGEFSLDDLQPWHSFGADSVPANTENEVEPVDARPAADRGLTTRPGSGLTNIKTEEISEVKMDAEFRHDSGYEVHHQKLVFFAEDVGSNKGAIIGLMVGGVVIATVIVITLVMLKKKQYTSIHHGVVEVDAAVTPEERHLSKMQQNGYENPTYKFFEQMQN

Regarding `O=C(CCCCC1CCSS1)NCCCNc1c2c(nc3cc(Cl)ccc13)CCCC2` (centres undefined) [LIPOCRINE], the concentration for half-maximal inhibition (IC50) in test [1] turned out to be 10 µM; in test [2], 45 µM.
With `COc1cc2c(cc1OCCC(=O)Nc1cc(C(=O)Nc3cc(C(=O)Nc4cc(C(=O)NCCC(=N)N)n(C)c4)n(C)c3)n(C)c1)N=C[C@@H]1CCCN1C2=O`, the 50% inhibitory concentration (IC50) at DNA [3] and on DNA [4] was 8 µM in each case.

Source of the values: ChEMBL document CHEMBL4229384, “Success stories of natural product-based hybrid molecules for multi-factorial diseases” (Eur J Med Chem, 2018).
